Test results taken from PubChem BioAssay (NCI).
“And” between values parts separate entries of the source, which are not always exact repeats. Equal values may be shown once.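 Method: 48-hour compound exposure of cells in 96-well plates, five concentrations, linear interpolation of endpoints. At the GI50, growth is halved. TGI: total growth inhibition.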

What follows are compounds tested on MDA-MB-468 breast (assay: NCI anticancer screen, dose series, 48 h).
`CN1CCN(Cc2ccc(NC(=O)c3cncc(C#Cc4cncc5nccnc45)c3)cc2C(F)(F)F)CC1` showed a GI50 of 7.06 µM and a TGI of 15.9 µM.
In the case of `Cn1c2ccccc2c2c3[nH][nH]c(=O)c3c3c4ccccc4[nH]c3c21`, the GI50 was 2.28 µM and the TGI was 9.19 µM.
With `COc1ccc(/C=C2\CN(Cc3cn(CCNc4ccnc5cc(Cl)ccc45)nn3)C/C(=C\c3ccc(OC)c(OC)c3)C2=O)cc1OC` the GI50 was 1.51 µM and the TGI was 4.41 µM.
`Nc1nc(N)c2c(n1)NC(c1ccccc1)C1CCc3ccccc3C1=N2` (stereo not drawn) was tested, and the GI50 was 0.473 µM and the TGI was 3.25 µM.
With `COc1cc(N2CCN(C(C)C)CC2)ccc1Nc1nc(Nc2cccc(F)c2C(=O)O)c2cc[nH]c2n1` the GI50 was > 25 µM and the TGI was > 25 µM.
`CCCCNC(=O)c1cc(NCc2cc(O)ccc2O)ccc1O` showed a GI50 of 12.3 µM and a TGI of 33.9 µM.
In the case of `c1cncc(C2Nc3cccc4cccc(c34)N2)c1`, the GI50 was 2.93 µM and the TGI was 16.7 µM.
In the case of `COc1cc(C2C3=C(COC3=O)Nc3c2ccc2c3CCCC2)cc2c1OCO2` (stereo not drawn), the GI50 was 0.0287 µM and the TGI was 0.0986 µM.
`NCCOc1ccccc1/C=C1\c2ccccc2-c2ccc([N+](=O)[O-])cc21` gave a GI50 of 1.54 µM and a TGI of 3.11 µM.
`CCN(CC)CCN(Cc1ccc(F)cc1)c1ccc(CO)c(Cl)c1` was tested, and the GI50 was 0.43 µM and the TGI was 1.75 µM.
`Cc1[nH]c(-c2nc3ccccc3[nH]2)c(C)c1C(=O)NC(C)C1CCCCC1` (stereo not drawn) gave a GI50 of 6.82 µM and a TGI of 28.3 µM.
In the case of `CC(C)n1nc(-c2ccc3oc(N)nc3c2)c2c(N)ncnc21`, the GI50 was < 0.01 µM and 0.0101 µM and the TGI was 0.0649 µM and 0.0633 µM.
`C[C@]1(Cn2ccnn2)C(C(=O)O)N2C(=O)CC2S1(=O)=O` (stereo partly drawn) was tested, and the GI50 was > 100 µM and the TGI was > 100 µM.
Compound `CN(C)CC(C(=O)Cc1ccccc1)c1ccccc1` (stereo not drawn) has a GI50 of 0.494 µM and a TGI of 2.05 µM.
In the case of `Cc1ccc(C2=Nc3c(N)ncnc3NC(c3ccc4c(c3)OCO4)C2)cc1` (stereo not drawn), the GI50 was 3.68 µM and the TGI was > 100 µM.
`CN(c1ccc(Br)cc1)S(=O)(=O)c1ccc(-c2cnc(C3CC3)o2)cc1` gave a GI50 of 0.0414 µM.
`C[n+]1c(-c2ccc(/C=N/NC(=O)c3ccc(C(=O)N/N=C/c4ccc(-c5cn6ccccc6[n+]5C)cc4)cc3)cc2)cn2ccccc21` gave a GI50 of 114 µM and a TGI of 326 µM.
Work on `CCCCNC(=O)Oc1ccc(/C(=C(/C)Cc2ccc(OC)cc2)c2ccc(OCCN3CCCC3)cc2)cc1` yielded a GI50 of 1.72 µM and a TGI of 3.43 µM.
Compound `OCCNCCCOc1ccc2ncnc(Nc3ccc(Oc4cccc(C(F)(F)F)c4)c(Cl)c3)c2c1` has a GI50 of 0.626 µM and a TGI of 2.21 µM.
With `COc1ccc(Cn2cc3c(c2-c2cc(OC)c(OC)c(OC)c2)CCc2c(CN4CCOCC4)noc2-3)cc1` the GI50 was 0.453 µM and the TGI was > 100 µM.
With `Cc1nc(N)sc1-c1csc(Nc2ccc(C(F)(F)F)cc2)n1` the GI50 was 2.25 µM and the TGI was 8.77 µM.
In the case of `COCCN1CCN(Cc2ccc(-c3n[nH]c4c3C(=O)c3c(NC(=O)NN5CCOCC5)cccc3-4)cc2)CC1`, the GI50 was 0.0198 µM and the TGI was 0.0669 µM.
For `Cc1cc(C(=O)NC(CCC(=O)O)C(=O)O)sc1CCC1CNc2nc(N)[nH]c(=O)c2C1` (stereo not drawn), the GI50 was 0.0584 µM and 0.0838 µM and the TGI was > 100 µM.
In the case of `CCOC(=O)c1c(C)nc2c(c1N)CC(=O)N2CCc1ccccc1`, the GI50 was 2.39 µM and the TGI was 30 µM.
For `CCCNC(=O)c1ccc(Cl)cc1Cl`, the GI50 was > 100 µM and the TGI was > 100 µM.
`COc1cc(-c2cc(/C=C/C(=O)c3ccc(Cl)c(Cl)c3)[nH]n2)cc(OC)c1OC` showed a GI50 of 1.98 µM and a TGI of 7.22 µM.
For `CCc1cc2ncc(CN3CCN(c4ccc(C(=O)NC)nc4)CC3)cc2[nH]c1=O`, the GI50 was 13.3 µM and the TGI was > 100 µM.
Compound `Cc1[nH]nc2c1N=C(c1ccccc1F)c1cc(C(N)=O)ccc1N2` has a GI50 of 1.16 µM and a TGI of 8 µM.
`CN1CCN(c2nc(NCCCNc3ccnc4cc(Cl)ccc34)c3ccccc3n2)CC1` gave a GI50 of 2.14 µM and a TGI of 6.14 µM.
Work on `C[C@]12CC[C@H]3[C@@H](C[C@@H]4SC(Nc5ccccc5)=N[C@@]45CC(O)CC[C@]35C)[C@@H]1CCC2O` (stereo partly drawn) yielded a GI50 of 1.72 µM and a TGI of 3.38 µM.
For `COc1cc2ncnc(Nc3ccc4c(cnn4Cc4ccccc4)c3)c2cc1OC`, the GI50 was 0.0596 µM and the TGI was 0.584 µM.
For `COc1ccc2c(Cl)cc(NC(=O)Nc3c(C)cccc3C)nc2c1`, the GI50 was 84.8 µM and the TGI was > 100 µM.
